The results in this text go back to patent US20040171089A1, “High-throughput screening assay for identifying substances capable of modulating cell survival and/or proliferation” (priority 2001, published 2004).

In one series the test system is mammary epithelial cells. Put plainly: MTS cell viability/proliferation assay, mammary epithelial cells. The class given is cell-based, human. To be noted: 1-10 μM. The method, then: Human mammary epithelial cells (catalogue number CC-2551; stain positive for cytokeratins 14, 18 and 19)
This was carried out using an MTS assay (reagents from Promega Corporation, Madison Wis., USA) which is a modification of the MTT assay (as described in Jacobson et al, 1994 EMBO J Vol 13 pp1899-1910). The assay depends on conversion of the MTS tetrazolium compound to a coloured formazan product in metabolically active cells; it is therefore an assay of viable cell number. A decline in values implies cell killing as long as cell disappearance by apoptosis in untreated cell populations is absent or negligible (as with most healthy primary cell populations).
Cells were seeded in the range 1.5×10^5-1.8×10^5 cells per ml of culture medium in 96 well microtitre plates and allowed to attach in a humidifed atmosphere of 5% CO2 in air at 37 deg C. Drugs were added 18-24 hours later and cell viability/proliferation measured at time intervals up to 48-72 hours post-drug addition when the experiment was terminated. […]
Cell viability was measured as follows: 20 μl of MTS solution (Promega) was added to wells and incubated at 37 deg C. for 3 hours during which time a coloured formazan product is generated in viable cells. […] Viable cell number was then measured by reading absorbance at 490 nm in a Dynex microtitre plate reader. […]

Another series deals with PKB/Akt. Put plainly: PKB immunoprecipitation activity assay in MDA MB 468 cells. Format: cell-based, human. The method, then:
All cells received 1% DMSOvehiclefor the duration of stimulation. […] Data pointsshown are the mean PKB activity relative to vehicle treated cells from three independently treated dishes of cells with error barsindicating the standard deviation. As controls, cells were treatedwith the PI 3-kinase inhibitor wortmannin for 30 minutes orstimulated with serum for 5 minutes; and
MDA MB 468 cells were exposed to the sigma antagonist IPAG at 100 μM and 10 μM concentrations for periods of time up to 4 hours. At intervals, cells were lysed and then subjected to PKB immunoprecipitation, precisely as has been described previously (Leslie et al., 2001, Biochemical Journal, Vol 357 p427). This method, which is recognised in the art, provides a quantitative measure of PKB activity. FIG. 5c depicts a concentration- and time-dependent decline in PKB activity when cells were exposed to IPAG.

In the next series the test system is MCF-7 cells. Briefly: Fura-2 calcium imaging, MCF-7 cells. Format: cell-based, human. To be noted: 10 μM. The method, then:
(§1) For calcium imaging experiments cells were plated onto poly-L-lysine coated coverslips (13 mm). Single cell imaging was performed utilizing a MiraCal Imaging facility (Life Science Resources, Cambridge, U.K.) with a Nikon Diaphot-TMD inverted epifluorescence microscope equipped with a ×40 oil immersion objective and Sutter filter wheel. The imager was equipped with a Lambert intensifier 1187 (Life Sciences Resources) providing a ×30 enhancement of the fluorescent signal, thus limiting phototoxicity.
(§2) Fura-2 acetoxymethyl ester (fura-2 AM) incubations with the cells were performed at 37° C. in a medium containing (in mM): 120 NaCl, 3.5 KCl, 0.4 KH2PO4, 5 NaHCO3, 1.2 Na2SO4, 15 glucose, 1.2 MgCl2, 1 CaCl2, and 20 TES [N-tris(hydroxymethyl) methyl-2-aminoethane sulphonic acid] pH adjusted to 7.4 with NaOH. Typically cells were incubated in 3 μM fura-2 AM for 25 min., which permitted sufficient accumulation of free fura-2 in the cell cytoplasm. Cells were then illuminated alternately at 340 and 380 nm with the emitted 505 nm light being detected by a photomultiplier. […] Changes of intracellular calcium were quantified as the percentage increase of the fluorescent ratio (determined at ˜505 nm) obtained by exciting the test cells alternatively at 340 nm (optimal for calcium bound dye) and 380 nm.

Series [1] has as its system phospholipase C. Briefly: Quantitative HPLC assay of inositol phosphates (IP3 levels) in MDA MB 468 cells. To be noted: [3H] inositol labelled cells. The class given is cell-based, human. The source says:
The PH domain of PLC delta 1 has a higher affinity for the phosphoinositide IP3 compared to PIP2. IP3 is produced from PIP2 in response to activation of PLC. Since PIP2 is membrane-bound whereas IP3 is cytosolic, the activation of PLC can be visualised in living cells by the relocalisation of GFP-PH PLC delta 1 from membrane to cytosol. A proviso to this interpretation is that, in conditions where PIP2 levels decline relative to IP3, the net effect would be relocalisation of GFP-PH PLC delta 1 from membrane to cytosol. Thus, to exclude this possibility, quantitative phospholipid assays were performed. (In this analysis, cells were labelled with [^3H] inositol in inositol-free DMEM (In Vitrogen—Gibco) with dialysed FBS for 48 hours before exposure to sigma ligands. Cells were then lysed and subjected to quantitative HPLC assay). These assays confirmed that IP3 levels had risen in cells exposed to sigma antagonists (IP3 levels had risen to 240% and 166% of the level prior to provision of the test substance in response to IPAG and rimcazole respectively) but had not risen in cells exposed to sigma-1 or sigma-2 agonists. This confirmed activation of PLC by sigma antagonists.

Series [2] relates to cerebellar granule neurones. Put plainly: Fura-2 calcium imaging, cerebellar granule neurones. Format: cell-based, rat. To be noted: 3 μM; cerebellar granule cells. Here is the method: Cerebellar granule cells were prepared from 6-7 day post natal rats as previously described (see Courtney, M. J., Lambert, J. J. and Nicholls, D. G. [1990] J. Neuroscience 10: 3873-3879).
as §1
as §2, with “Typically cells were incubated in 3 μM fura-2 AM for 25 min., which permitted sufficient accumulation of free fura-2 in the cell cytoplasm.” left out

Series [3] relates to phospholipase C. Put plainly: GFP-PH PLCdelta 1 relocalisation (PLC activation) in MDA MB 468 cells. Format: cell-based, human.
Text: The inventors introduced a recombinant plasmid vector encoding a hybrid protein comprised of the pleckstrin homology (PH) domain of phospholipase C (PLC) delta 1 fused green fluorescent protein (GFP) (GFP-PH PLCdelta 1) into MDA MB 468 mammary carcinoma cells. A standard transfection method (Fugene-6—Roche) was used. […] Cells were maintained in DMEM with 10% fetal bovine serum at 37 deg C. in 5% CO2 before and during exposure to sigma ligands which were present at a range of concentrations. Effects on the GFP-PH PLCdelta 1 protein were studied in two ways: by time lapse microscopy (using a Leica inverted fluorescence microscope and a Hammamatsu Orca charge-coupled device camera, linked to an Improvision Open Lab image processing workstation). This enabled the time course of effects to be determined. […] Control cell populations received drug vehicle alone and were analysed at the same time points.
GFP-PH PLC delta 1—expressing MDA MB 468 cells were exposed to sigma antagonists in 1 mM and 0 mM (nominally calcium-free) buffer (as used for the calcium imaging experiments, described above) and monitored by time lapse imaging as above.

Regarding `N=C(Nc1ccc(I)cc1)NC1C2CC3CC(C2)CC1C3` (stereo not drawn) [IPAG, 1-(4-iodophenyl)-3-(2-adamantyl)guanidine], the Cytotoxicity result in the series on mammary epithelial cells was “not cytotoxic”. The PKB activity entry is recorded as “later decline in PKB activity” with PKB/Akt (10 μM, up to 4 hours) and “profoundly inhibited PKB activity” in the series with PKB/Akt (100 μM, within 5 minutes, sustained to at least 30 minutes). The “time by which calcium levels have returned to baseline” value with MCF-7 cells is at most 30 min. In addition, in the series with MCF-7 cells, the “time to peak effect on cytosolic calcium” value was at most 5 min. The “IP3 levels, % of the level prior to provision of the test substance” value in the series on phospholipase C [1] was 240%. Besides, the “% increase of cytosolic calcium (peak 340/380 nm fura-2 ratio)” value in series [2] stood at 20±2%. In the series with phospholipase C [3] (100 μM, approximately 10 minutes, DMEM with 10% fetal bovine serum), the “relocalisation of GFP-PH PLC delta 1 from membrane to cytosol” value is “pronounced relocalisation”. Moreover, in the series with phospholipase C [3] (nominally calcium-free buffer (0 mM calcium)), the “localisation of GFP-PH PLC delta 1” value is recorded as “remained membrane-localised”.
